Assay results reported in patent US8501770B2 (ArQule, Inc., priority 2009, dated 2013).
Where a name gives a salt, the structure may show the parent alone.

Target: Full-length inactive AKT1 (Homo sapiens, UniProt P31749)
Experiment: Inactive Akt Alpha Screen Assay
Format: biochemical
Settings: AlphaScreen assay (values not marked with *); read-out: Akt1 IC50, (AlphaScreen) (μM) (or if marked with “*” HTRF assay)
Procedure, shortened: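 AlphaScreen read-out (excitation 640 nm, emission 570 nm) after 90 min incubation at room temperature in the dark. Signal comes from crosstide phosphorylation by AKT1, which was activated by added PDK1, MAPKAPK2, ATP and lipid vesicles, captured via phospho-AKT substrate antibody and streptavidin beads.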

Chain of Full-length inactive AKT1 (P31749 whole entry): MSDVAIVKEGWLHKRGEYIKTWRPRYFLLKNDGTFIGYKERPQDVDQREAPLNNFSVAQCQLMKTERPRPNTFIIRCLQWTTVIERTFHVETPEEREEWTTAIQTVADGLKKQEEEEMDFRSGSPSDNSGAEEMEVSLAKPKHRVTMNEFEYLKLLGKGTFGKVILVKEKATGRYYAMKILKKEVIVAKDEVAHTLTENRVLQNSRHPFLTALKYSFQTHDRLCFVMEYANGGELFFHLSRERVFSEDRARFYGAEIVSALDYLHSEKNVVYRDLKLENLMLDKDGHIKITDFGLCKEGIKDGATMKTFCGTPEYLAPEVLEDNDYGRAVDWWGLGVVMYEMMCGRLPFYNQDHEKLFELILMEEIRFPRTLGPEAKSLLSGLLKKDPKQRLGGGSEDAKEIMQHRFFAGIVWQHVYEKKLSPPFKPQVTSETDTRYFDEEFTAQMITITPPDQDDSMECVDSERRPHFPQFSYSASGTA

Structure (SMILES) | IC50 [µM]
Nc1ncccc1-c1nc2ccc(-c3ccc(O)c(F)c3)nc2n1-c1ccc(C2(N)CCC2)cc1 [Example 434, 4-{3-[4-(1-aminocyclobutyl)phenyl]-2-(2-aminopyridin-3-yl)-3H-imidazo[4,5-b]pyridin-5-yl}-2-fluorophenol] | 0.005
Nc1ncccc1-c1nc2ccc(-c3ccnc(N4CCOCC4)c3)nc2n1-c1ccc(C2(N)CCC2)cc1 [Example 439, 3-{3-[4-(1-aminocyclobutyl)phenyl]-5-(2-morpholin-4-ylpyridin-4-yl)-3H-imidazo[4,5-b]pyridin-2-yl}pyridin-2-amine] | 0.0026
CNC(=O)c1cc(-c2ccc3nc(-c4cccnc4N)n(-c4ccc(C5(N)CCC5)cc4)c3n2)ccc1F [Example 440, 5-{3-[4-(1-aminocyclobutyl)phenyl]-2-(2-aminopyridin-3-yl)-3H-imidazo[4,5-b]pyridin-5-yl}-2-fluoro-N-methylbenzamide] | 0.0054
CCNC(=O)c1cccc(-c2ccc3nc(-c4cccnc4N)n(-c4ccc(C5(N)CCC5)cc4)c3n2)c1 [Example 441, 3-{3-[4-(1-aminocyclobutyl)phenyl]-2-(2-aminopyridin-3-yl)-3H-imidazo[4,5-b]pyridin-5-yl}-N-ethylbenzamide] | 0.0066
COc1cccc(-c2ccc3nc(-c4cccnc4N)n(-c4ccc(C5(N)CCC5)cc4)c3n2)c1C#N [Example 444, 2-{3-[4-(1-aminocyclobutyl)phenyl]-2-(2-aminopyridin-3-yl)-3H-imidazo[4,5-b]pyridin-5-yl}-6-methoxybenzonitrile] | 0.0068
Nc1ncccc1-c1nc2ccc(-c3ccnc(O)c3)nc2n1-c1ccc(C2(N)CCC2)cc1 [Example 448, 4-{3-[4-(1-aminocyclobutyl)phenyl]-2-(2-aminopyridin-3-yl)-3H-imidazo[4,5-b]pyridin-5-yl}pyridin-2-ol] | 0.0039
Nc1ncccc1-c1nc2ccc(-c3cccc(N4CCCC4)c3)nc2n1-c1ccc(C2(N)CCC2)cc1 [Example 449, 3-{3-[4-(1-aminocyclobutyl)phenyl]-5-(3-pyrrolidin-1-ylphenyl)-3H-imidazo[4,5-b]pyridin-2-yl}pyridin-2-amine] | 0.0023
Nc1ncccc1-c1nc2ccc(-c3cccc(N4CCOCC4)n3)nc2n1-c1ccc(C2(N)CCC2)cc1 [Example 451, 3-{3-[4-(1-aminocyclobutyl)phenyl]-5-(6-morpholin-4-ylpyridin-2-yl)-3H-imidazo[4,5-b]pyridin-2-yl}pyridin-2-amine] | 0.0071
Nc1ncccc1-c1nc2ccc(-c3ccc4c(c3)CC(=O)N4)nc2n1-c1ccc(C2(N)CCC2)cc1 [Example 453, 5-{3-[4-(1-aminocyclobutyl)phenyl]-2-(2-aminopyridin-3-yl)-3H-imidazo[4,5-b]pyridin-5-yl}-1,3-dihydro-2H-indol-2-one] | 0.0028
CN(C)S(=O)(=O)Nc1cccc(-c2ccc3nc(-c4cccnc4N)n(-c4ccc(C5(N)CCC5)cc4)c3n2)c1 [Example 455, N′-(3-{3-[4-(1-aminocyclobutyl)phenyl]-2-(2-aminopyridin-3-yl)-3H-imidazo[4,5-b]pyridin-5-yl}phenyl)-N,N-dimethylsulfamide] | 0.011
Nc1ncccc1-c1nc2ccc(-c3cccc(N4CCCOCC4)c3)nc2n1-c1ccc(C2(N)CCC2)cc1 [Example 459, 3-{3-[4-(1-aminocyclobutyl)phenyl]-5-[3-(1,4-oxazepan-4-yl)phenyl]-3H-imidazo[4,5-b]pyridin-2-yl}pyridin-2-amine] | 0.0077
Nc1ncccc1-c1nc2ccc(-c3cccc(N4CCC(O)CC4)c3)nc2n1-c1ccc(C2(N)CCC2)cc1 [Example 462, 1-(3-{3-[4-(1-aminocyclobutyl)phenyl]-2-(2-aminopyridin-3-yl)-3H-imidazo[4,5-b]pyridin-5-yl}phenyl)piperidin-4-ol] | 0.01
Nc1ncccc1-c1nc2ccc(-c3ccc(N4CCOCC4)cc3)nc2n1-c1ccc(C2(N)CCC2)cc1 [Example 465, 3-{3-[4-(1-aminocyclobutyl)phenyl]-5-(4-morpholin-4-ylphenyl)-3H-imidazo[4,5-b]pyridin-2-yl}pyridin-2-amine hydrochloride] | 0.0058

Continued by falling IC50, values first:

IC50 [µM] | Structure (SMILES)
0.045 | Nc1ncccc1-c1nc2ccc(-c3ccc(O)nc3)nc2n1-c1ccc(C2(N)CCC2)cc1 [Example 447, 5-{3-[4-(1-aminocyclobutyl)phenyl]-2-(2-aminopyridin-3-yl)-3H-imidazo[4,5-b]pyridin-5-yl}pyridin-2-ol]
0.014 | Nc1ncccc1-c1nc2ccc(-c3cc(O)ccc3F)nc2n1-c1ccc(C2(N)CCC2)cc1 [Example 437, 3-{3-[4-(1-aminocyclobutyl)phenyl]-2-(2-aminopyridin-3-yl)-3H-imidazo[4,5-b]pyridin-5-yl}-4-fluorophenol]
0.014 | Nc1ncccc1-c1nc2ccc(-c3cccc(O)c3F)nc2n1-c1ccc(C2(N)CCC2)cc1 [Example 445, 3-{3-[4-(1-aminocyclobutyl)phenyl]-2-(2-aminopyridin-3-yl)-3H-imidazo[4,5-b]pyridin-5-yl}-2-fluorophenol]
0.012 | Cc1ccc(-c2ccc3nc(-c4cccnc4N)n(-c4ccc(C5(N)CCC5)cc4)c3n2)cc1O [Example 443, 5-{3-[4-(1-aminocyclobutyl)phenyl]-2-(2-aminopyridin-3-yl)-3H-imidazo[4,5-b]pyridin-5-yl}-2-methylphenol]
0.012 | Nc1ncccc1-c1nc2ccc(-c3cccc(N4CCCCCC4)c3)nc2n1-c1ccc(C2(N)CCC2)cc1 [Example 458, 3-{3-[4-(1-aminocyclobutyl)phenyl]-5-(3-azepan-1-ylphenyl)-3H-imidazo[4,5-b]pyridin-2-yl}pyridin-2-amine]
0.011 | CN(C)C1CCN(c2cccc(-c3ccc4nc(-c5cccnc5N)n(-c5ccc(C6(N)CCC6)cc5)c4n3)c2)CC1 [Example 460, 3-(3-[4-(1-aminocyclobutyl)phenyl]-5-{3-[4-(dimethylamino)piperidin-1-yl]phenyl}-3H-imidazo[4,5-b]pyridin-2-yl)pyridin-2-amine]
0.011 | Nc1ncccc1-c1nc2ccc(-c3cccc(N4CCC5(CC4)OCCO5)c3)nc2n1-c1ccc(C2(N)CCC2)cc1 [Example 464, 3-{3-[4-(1-aminocyclobutyl)phenyl]-5-[3-(1,4-dioxa-8-azaspiro[4.5]dec-8-yl)phenyl]-3H-imidazo[4,5-b]pyridin-2-yl}pyridin-2-amine]
0.01 | Nc1ncccc1-c1nc2ccc(-c3cc(O)cc(F)c3)nc2n1-c1ccc(C2(N)CCC2)cc1 [Example 435, 3-{3-[4-(1-aminocyclobutyl)phenyl]-2-(2-aminopyridin-3-yl)-3H-imidazo[4,5-b]pyridin-5-yl}-5-fluorophenol]
0.0094 | Nc1ncccc1-c1nc2ccc(-c3cccc4c3CC(=O)N4)nc2n1-c1ccc(C2(N)CCC2)cc1 [Example 454, 4-{3-[4-(1-aminocyclobutyl)phenyl]-2-(2-aminopyridin-3-yl)-3H-imidazo[4,5-b]pyridin-5-yl}-1,3-dihydro-2H-indol-2-one]
0.0093 | Nc1ncccc1-c1nc2ccc(-c3cccc(N4CCC4)c3)nc2n1-c1ccc(C2(N)CCC2)cc1 [Example 457, 3-{3-[4-(1-aminocyclobutyl)phenyl]-5-(3-azetidin-1-ylphenyl)-3H-imidazo[4,5-b]pyridin-2-yl}pyridin-2-amine]
0.0089 | Nc1ncccc1-c1nc2ccc(-c3c[nH]c4ccncc34)nc2n1-c1ccc(C2(N)CCC2)cc1 [Example 446, 3-{3-[4-(1-aminocyclobutyl)phenyl]-5-(1H-pyrrolo[3,2-c]pyridin-3-yl)-3H-imidazo[4,5-b]pyridin-2-yl}pyridin-2-amine]
0.0079 | CN1C(=O)COc2ccc(-c3ccc4nc(-c5cccnc5N)n(-c5ccc(C6(N)CCC6)cc5)c4n3)cc21 [Example 438, 6-{3-[4-(1-aminocyclobutyl)phenyl]-2-(2-aminopyridin-3-yl)-3H-imidazo[4,5-b]pyridin-5-yl}-4-methyl-2H-1,4-benzoxazin-3(4H)-one]
0.0078 | Nc1ncccc1-c1nc2ccc(-c3ccc(F)c(O)c3)nc2n1-c1ccc(C2(N)CCC2)cc1 [Example 436, 5-{3-[4-(1-aminocyclobutyl)phenyl]-2-(2-aminopyridin-3-yl)-3H-imidazo[4,5-b]pyridin-5-yl}-2-fluorophenol]
0.0072 | CNC(=O)c1ccc(-c2ccc3nc(-c4cccnc4N)n(-c4ccc(C5(N)CCC5)cc4)c3n2)cc1F [Example 450, 4-{3-[4-(1-aminocyclobutyl)phenyl]-2-(2-aminopyridin-3-yl)-3H-imidazo[4,5-b]pyridin-5-yl}-2-fluoro-N-methylbenzamide]
0.0049 | Nc1ncccc1-c1nc2ccc(-c3cccc4[nH]ncc34)nc2n1-c1ccc(C2(N)CCC2)cc1 [Example 442, 3-{3-[4-(1-aminocyclobutyl)phenyl]-5-(1H-indazol-4-yl)-3H-imidazo[4,5-b]pyridin-2-yl}pyridin-2-amine]
0.0041 | Nc1ncccc1-c1nc2ccc(-c3ccc4[nH]ccc4c3)nc2n1-c1ccc(C2(N)CCC2)cc1 [Example 452, 3-{3-[4-(1-aminocyclobutyl)phenyl]-5-(1H-indol-5-yl)-3H-imidazo[4,5-b]pyridin-2-yl}pyridin-2-amine]
0.0035 | Nc1ncccc1-c1nc2ccc(-c3cccc(N4CCOCC4=O)c3)nc2n1-c1ccc(C2(N)CCC2)cc1 [Example 466, 4-(3-{3-[4-(1-aminocyclobutyl)phenyl]-2-(2-aminopyridin-3-yl)-3H-imidazo[4,5-b]pyridin-5-yl}phenyl)morpholin-3-one hydrochloride]
0.0031 | Nc1ncccc1-c1nc2ccc(-c3cccc(-n4cccn4)c3)nc2n1-c1ccc(C2(N)CCC2)cc1 [Example 456, 3-{3-[4-(1-aminocyclobutyl)phenyl]-5-[3-(1H-pyrazol-1-yl)phenyl]-3H-imidazo[4,5-b]pyridin-2-yl}pyridin-2-amine]
